From article PMC11984905, “Chiral Switch of Gadopiclenol: New Standards in MRI Probes” (Advanced Science, 2025)

Key:
[1] = Stability and protonation constants of Cu(II)-complexes (spectrophotometry, pH-potentiometry); type: physicochemical; conditions: 0.15 M NaCl, 25 °C
Method: The stability constants of the Cu(II)‐complexes with rac‐L1, ent‐L1, rac‐L2 and ent‐L2 ligands were determined by spectrophotometry studying the Cu(II) – rac‐L1, Cu(II) – ent‐L1, Cu(II) – rac‐L2 and Cu(II) – ent‐L2 systems at the absorption band of Cu(II)‐complexes at [H^+] = 0.01–1.0 M in the wavelength range of 400–800 nm. The concentrations of CuCl2, rac‐L1, ent‐L1, rac‐L2 and ent‐L2 ligands were 0.002 M. The H^+ concentration in the samples was adjusted with the addition of calculated amounts of 3 M HCl. (I = [Na^+]+[H^+] = 0.15, [H^+]≤0.15 M). The samples were kept at 25 °C for a week. The absorbance values of the samples were determined at 11 wavelengths (575, 595, 615, 635, 655, 675, 695, 715, 735, 755, and 775 nm). For the calculations of the stability and protonation constants of the Cu(II)‐complexes, the molar absorptivities of CuCl2 and Cu(II)‐complexes were determined by recording the spectra of 1.0 × 10^−3, 1.5 × 10^−3, 2.0 × 10^−3, and 2.5 × 10^−3 M solutions of CuCl2 and Cu(II)‐complexes in the pH range of 1.7–7.5. The pH was adjusted by stepwise addition of concentrated NaOH or HCl solutions. The spectrophotometric measurements were made with a PerkinElmer Lambda 365 UV–vis spectrophotometer at 25 °C, using 1.0 cm cells.
The stability and protonation constants of Cu(II) complexes with rac-L1, ent-L1, rac-L2 and ent-L2 have been determined by spectrophotometry. The equilibrium reaction (Equation (S8)) has been studied in the [H^+] range of 0.01 – 1.0 M (the ionic strength was constant I=[Na^+]+[H^+]=0.15 in the samples [H^+]≤0.15 M), where the formation of Cu^2+, CuHx-yL and HxL species was assumed ([Cu(rac-L1)]^4- and [Cu(ent-L1)]^4-: x=6 and 7, y=4 and 5; [Cu(rac-L2)]^4- and [Cu(ent-L2)]^4-: x=3 and 4, y=1 and 2).
The protonation constants of Cu(II)-complexes with rac-L1, ent-L1, rac-L2 and ent-L2 have been determined by pH-potentiometric and spectrophotometric titrations of the complexes in the pH range 1.7 – 7.0. These studies reveal that [Cu(rac-L1)]^4- and [Cu(ent-L1)]^4- complexes can form mono-, di-, tri, tetra- and penta-protonated species via the protonation of all distant and two closer carboxylate groups of the pendant arms. Moreover, the pH potentiometric studies also indicate that the [Cu(rac-L2)]^- and [Cu(ent-L2)]^- complexes can form mono- and di-protonated species via the protonation of two carboxylate groups. […] Moreover, the maximum of the absorption band for the [Cu(H5L)]^+ species in Cu^2+ – ent-L1 system is also similar to that of [Cu(H2L)]^+ in Cu^2+ – ent-L2 system ([…], Figures S45 and S47). The maximum of the absorption band is shifted from 730 to 750 nm by the deprotonation of [Cu(H5L)]^+ and [Cu(H2L)]^+ via the formation of [Cu(H4L)] and [Cu(HL)] species in Cu^2+– rac-L1 and Cu^2+– rac-L2 systems (Figures S44 and S46).

[2] = Relaxivity at 21 / 400 MHz and 25 °C in 0.15 M NaCl; type: physicochemical; conditions: 0.15 M NaCl
Method: The relaxivity values were calculated from the longitudinal relaxation time of H2O protons (T 1) measured at 21 MHz on a Stelar relaxometer connected to a Bruker WP80 NMR electromagnet adapted to variable‐field measurements (15−80 MHz proton Larmor frequency). The temperature of the sample holder was controlled with a thermostatted air stream. The longitudinal relaxation time was measured with the “inversion recovery” method (180° – τ – 90°) by using 12 different τ values with typical 90° pulse width of 6.4 µs, 4 scans. The measurements were performed with 1 mM solution of the Gd(III)‐complexes with rac‐L1, ent‐L1, rac‐L2, and ent‐L2 ligands, so the relaxivity values were given as r 1 = […] where T 1p and T 1w were the relaxation time of bulk water protons in the presence and absence of paramagnetic species, respectively. The variable pH relaxivity measurements of Gd(III)‐complexes with rac‐L1, ent‐L1, rac‐L2, and ent‐L2 ligands could be carried out by direct titration of the samples in the pH range 2.5–9.0 (21 MHz, 25 °C, 0.15 M NaCl). The pH was adjusted by stepwise addition of concentrated NaOH or HCl solution.
The stability constant of Gd(III)‐complexes with rac‐L2 and ent‐L2 ligands were determined by the measurement of the proton relaxation rates (r 1) studying the competition reaction of rac‐L2 and ent‐L2 ligands with AAZTA for Gd(III) ion at pH = 4.0 in 0.15 M NaCl solution. In these experiments, the concentration of Gd^3+, rac‐L2, and ent‐L2 ligands was 2.0 mM, while that of the AAZTA was varied between 1.0 and 6.0 mM (5 × 1.5 mL samples). The pH was adjusted to pH 4.0 by stepwise addition of concentrated NaOH or HCl solutions. The samples were kept at 70 °C for a month and then at 25°C for two months in order to attain the equilibrium (the time needed to reach the equilibria was determined by ^1H‐NMR relaxometry). ^1H‐NMR relaxometric measurement of Gd(III) – rac‐L2 – AAZTA and Gd(III) – ent‐L2 – AAZTA systems were performed with a Bruker Avance III 400 (9.4 T) equipped with BB inverse z gradient probe (5 mm). The longitudinal relaxation time (T 1) was measured with the “inversion recovery” method (180° – τ – 90°) by using 12 different τ values with typical 90° pulse width of 12.0 µs, 4 scans at 298 K. The stability constants of [Gd(rac‐L2)] and [Gd(ent‐L2)] complexes were calculated by considering the protonation constants of AAZTA ligand and the stability constant of [Gd(AAZTA)]^− complex (AAZTA: logK 1 ^H = 10.06, logK 2 ^H = 6.50, logK 3 ^H = 3.77, logK 4 ^H = 2.33, logK 5 ^H = 1.51; [Gd(AAZTA)]^−: logK GdL = 18.93, 0.15 M NaCl, 25 °C).^[ [47] ^] The equilibrium constants were calculated with the program PSEQUAD.^[ [48] ^]

Structure (SMILES) | logK CuL [1] | logKCuH2L [1] | logKCuH3L [1] | logKCuH4L [1] | logKCuH5L [1] | logKCuHL [1] | Relaxivity of GdH2L species ([2]; 21 MHz) [mM⁻¹ s⁻¹] | Relaxivity of GdH3L species ([2]; 21 MHz) [mM⁻¹ s⁻¹] | Relaxivity of GdH4L species ([2]; 21 MHz) [mM⁻¹ s⁻¹] | Relaxivity of GdHL species ([2]; 21 MHz) [mM⁻¹ s⁻¹] | Relaxivity of GdL species ([2]; 21 MHz) [mM⁻¹ s⁻¹] | Relaxivity of GdL species ([2]; 400 MHz) [mM⁻¹ s⁻¹]
O=C(O)CCC(C(=O)O)N1CCN(C(CCC(=O)O)C(=O)O)Cc2cccc(n2)CN(C(CCC(=O)O)C(=O)O)CC1 (racemic) [rac‐L1, 2,2’,2’’-[3,6,9,15-tetraazabicyclo[9.3.1]pentadeca-1(15),11,13-triene-3,6,9-triyl]tripentanedioic acid] | 23.26(4) | 4.80 (2) | 4.28 (2) | 3.69 (2) | 2.33 (2) | 5.38 (3) | 9.61 ± 0.06 | 10.1 ± 0.1 | 11.7 ± 0.1 | 9.61 ± 0.06 | 9.61 ± 0.06 | –
O=C(CCC(C(=O)O)N1CCN(C(CCC(=O)NCC(O)CO)C(=O)O)Cc2cccc(n2)CN(C(CCC(=O)NCC(O)CO)C(=O)O)CC1)NCC(O)CO (racemic) [rac‐L2] | 21.04 (5) | 2.58 (5) | – | – | – | 4.42 (4) | – | – | – | – | 14.8 ± 0.1 | 10.8 ± 0.1
O=C(O)CCC(C(=O)O)N1CCN(C(CCC(=O)O)C(=O)O)Cc2cccc(n2)CN(C(CCC(=O)O)C(=O)O)CC1 (stereo not drawn) [ent‐L1] | 23.22 (6) | 4.72 (2) | 4.11 (2) | 3.36 (2) | 1.31 (2) | 5.25 (2) | 12.2 ± 0.2 | 11.8 ± 0.1 | – | 12.1 ± 0.1 | 12.9 ± 0.1 | –
O=C(CCC(C(=O)O)N1CCN(C(CCC(=O)NCC(O)CO)C(=O)O)Cc2cccc(n2)CN(C(CCC(=O)NCC(O)CO)C(=O)O)CC1)NCC(O)CO (stereo not drawn) [ent‐L2] | 21.52 (4) | 1.44 (1) | – | – | – | 3.27 (1) | – | – | – | – | 16.2 ± 0.1 | 11.8 ± 0.1
